Source: article PMC6749524, “Identification of New Antifungal Agents Targeting Chitin Synthesis by a Chemical-Genetic Method” (Molecules, 2019)

Legend:
[1] = system: human embryonic kidney 293 cells; experiment: Cytotoxicity assay (MTT); type: cell-based; settings: concentration as high as 100 μg/mL, 48 hours
Description: Human embryonic kidney 293 cells and Hela cells were seeded in triplicate in 96-well plates and grown to log-phase in DMEM medium with 10% FBS. Then, the medium was removed, and the cells were incubated with compounds at various concentrations ranging from 3.125 to 100 μg/mL in DMEM medium without FBS. After incubation for 48 hours, MTT reagent was added for further incubation for 4 hours. After we added 50 μL of DMSO, the absorbance was measured at 570 nm. The IC50 values were calculated based on a concentration-response curve.

[2] = molecular target: Chs2 (Saccharomyces cerevisiae, UniProt P14180); experiment: Chitin synthase activity assay (WGA-coated plate); type: biochemical, S. cerevisiae; settings: membrane protein from WT yeast
Chain of Chs2 (P14180 whole entry): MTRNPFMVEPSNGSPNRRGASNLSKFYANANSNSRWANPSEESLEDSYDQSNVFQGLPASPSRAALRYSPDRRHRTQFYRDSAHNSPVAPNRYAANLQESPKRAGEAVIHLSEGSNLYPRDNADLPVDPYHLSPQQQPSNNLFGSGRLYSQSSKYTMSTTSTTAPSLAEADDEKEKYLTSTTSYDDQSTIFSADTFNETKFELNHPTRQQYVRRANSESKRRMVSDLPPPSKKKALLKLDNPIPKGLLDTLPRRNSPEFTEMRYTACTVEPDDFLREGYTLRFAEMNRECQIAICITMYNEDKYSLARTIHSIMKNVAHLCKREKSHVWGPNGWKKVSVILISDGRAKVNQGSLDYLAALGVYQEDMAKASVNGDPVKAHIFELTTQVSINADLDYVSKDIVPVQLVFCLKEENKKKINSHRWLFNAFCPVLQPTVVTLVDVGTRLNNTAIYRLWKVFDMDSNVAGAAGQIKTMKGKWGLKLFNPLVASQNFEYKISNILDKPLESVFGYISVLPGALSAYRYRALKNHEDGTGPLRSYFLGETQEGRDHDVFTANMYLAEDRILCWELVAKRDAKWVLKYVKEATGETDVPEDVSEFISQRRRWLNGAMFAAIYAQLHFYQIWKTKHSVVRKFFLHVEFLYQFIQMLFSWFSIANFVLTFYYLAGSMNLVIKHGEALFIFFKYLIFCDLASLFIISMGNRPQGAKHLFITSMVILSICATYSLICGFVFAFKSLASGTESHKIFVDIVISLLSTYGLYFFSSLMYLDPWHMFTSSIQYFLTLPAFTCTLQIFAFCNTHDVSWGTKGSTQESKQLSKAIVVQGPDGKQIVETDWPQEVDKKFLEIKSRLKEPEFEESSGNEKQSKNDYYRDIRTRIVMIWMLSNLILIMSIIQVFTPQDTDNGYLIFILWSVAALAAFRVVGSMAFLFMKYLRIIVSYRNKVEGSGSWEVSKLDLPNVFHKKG
Description: The inhibitory effect of compounds IMB-D10 and IMB-F4, on the activity of chitin synthases 1, 2, and 3, was measured by the procedure, described previously. In brief, WT yeast cells were grown in YPD medium to OD600 1–2. The cells were sedimented at 1500 g for 15 min at 4 °C and washed once with water. Then, the cells were resuspended in cold 100 mM Tris-HCl (pH 7.5) buffer containing protease inhibitors, and broken by 10 cycles of vortexing with acid-washed glass beads (1 min each). The broken cells were centrifuged for 15 min at 1500g to eliminate cell wall and debris. One volume of supernatant was placed on 2 volumes of 10% w/w sucrose in 100 mM Tris-HCl pH 7.5 and centrifuged at 55,000 g for 2 hours. The pellet was resuspended in 50 mM Tris-HCl pH 7 and used as membrane protein of Chs3. For Chs1 and Chs2, the membrane protein was pretreated with 80 μg/mL trypsin for 30 min at 30 °C.
To assess the enzyme activity of Chs1, the assay mixture contained 15 μg membrane protein, 5 mM MgCl2, 32 mM Tris-maleate (pH6.5), 0.2% digitonin, 40 mM N-acetyl-glucosamine (GlcNAc), and 4 mM UDP-GlcNAc. For Chs2, the mixture contained 15 μg pretreated membrane protein, 1.6 mM CoCl2, 32 mM Tris-HCl (pH 8), 40 mM GlcNAc, and 4 mM UDP-GlcNAc. For Chs3, the mixture contained pretreated membrane protein 15 μg, 1.6 mM CoCl2, 5 mM NiCl2, 32 mM Tris-HCl (pH 8), 40 mM GlcNAc, and 4 mM UDP-GlcNAc. Different concentrations of IMB-D10 and IMB-F4 were added to the mixture, and the reaction without UDP-GlcNAc was used to measure background absorbance. The 96-well plate coated with 50 μg/mL wheat germ agglutinin (WGA) was washed three times with water, and the reaction mixture was added into the wells and incubated at 30 °C for 60 min. The reaction was stopped by 50 mM EDTA, and the plate was emptied and washed with a large volume of water, followed by the addition of 200 μL 0.5 μg/mL WGA-HRP and incubation for 5 min at room temperature. The plate was washed 5 times with running distilled water. Then, the Tetramethylbenzidine (TMB) reagent was added, and the optical density at 600 nm (OD600) was immediately detected with Multilabel Reader (Envision, PE, Pontyclun, UK). All reactions were performed in triplicate.

[3] = system: CHS1, CHS2, and CHS3 genes; experiment: qRT-PCR gene expression; type: cell-based, S. cerevisiae; settings: 25 μg/mL, 16 hours
Description: WT yeast cells were grown to 10^5 CFU/mL in YPD medium and then treated with 25 μg/mL compounds or 0.25% DMSO for 16 hours at 30 °C. Then, the cells were collected by centrifugation at 1500 g for 5 min and washed twice with water. Total RNA was prepared using the Yeast RNA kit (OMEGA R6870-01, Norcross, GA, USA) and treated with DNase Ⅰ (TransGen GD201-01, Beijing, China) to remove genomic DNA. The resulting RNA was reverse-transcribed with the cDNA synthesis super-mix kit (TransGen AT311, Beijing, China). qRT-PCR was performed using Fast Universal SYBR Green Master (Rox, Roche, Mannheim, Gemany) and gene-specific primers (Table S1). The DNA level was measured using an Real-Time Quantitative Thermal Cycler (FTC-3000, Funglyn Biotech Inc, Toronto, Canada). The expression levels were correlated with the copy numbers used to amplify the gene to reach the threshold, then represented as the mean ± SEM relative to the cells treated with DMSO. One-way ANOVAs were performed to identify deviation from the mean.

Row | Molecule | growth inhibition (toxicity) [1] | IC50 Chs2 [2] [mg/L] | expression levels of CHS1, CHS2, and CHS3 genes [3]
1 | COc1cc(OC)cc(C(=O)N(CCn2ccnc2)c2nc3ccc(OC)cc3s2)c1 [IMB-F4, N-(2-(1H-imidazol-1-yl)ethyl)-3,5-dimethoxy-N-(6-methoxybenzo[d]thiazol-2-yl)benzamide] | No growth inhibition |  | 
2 | N-(2-(diethylamino) ethyl)-N-(7-hydroxy-4-methoxybenzo[d]thiazol -2-yl)-2-oxo-2H-chromene-3-carboxamide [IMB-D10] |  | 3.516 ± 1.35 | did not decrease significantly
